Key:
Assay in all cases: relative viability (nuclei count vs DMSO), 5 days (fraction); higher = more cells survive
[1] = compound: N=C1NC(=O)/C(=C/c2ccc(O)cc2)S1 [Mirin] + O=C(c1cc(Cc2n[nH]c(=O)c3ccccc23)ccc1F)N1CCN(C(=O)C2CC2)CC1 [Olaparib] (partner 8 µM)
Procedure, shortened: (§1)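 Each reported value is a median over duplicate plates. It expresses relative viability: treated-well nuclei count divided by vehicle-well nuclei count. Lung cancer cell lines in 1536-well plates were dosed by pin tool a day after seeding, alone with one drug or with a fixed anchor-drug dose plus five library-drug doses (not always all listed) in √10 steps, and nuclei were counted after 5 days.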

[2] = compound: N=C1NC(=O)/C(=C/c2ccc(O)cc2)S1 [Mirin] + N=C(N)NC(=N)NCCc1ccccc1 [Phenformin] (partner 250 µM)
Procedure, shortened: as §1

[3] = compound: CCn1c(-c2nonc2N)nc2cnc(Oc3cccc(NC(=O)c4ccc(OCCN5CCOCC5)cc4)c3)cc21 + CS(=O)(=O)CCNCc1ccc(-c2ccc3ncnc(Nc4ccc(OCc5cccc(F)c5)c(Cl)c4)c3c2)o1 [Lapatinib] (partner 2 µM)
Procedure, shortened: as §1

[4] = compound: CCC1=CN=CN=C1N2CCN(CC2)CC3=NC4=C(N3)C=C(C=C4)C(F)(F)F + N=C(N)NC(=N)NCCc1ccccc1 [Phenformin] (partner 250 µM)
Procedure, shortened: as §1

Row | Cell Line | relative viability ([1]; first compound 0.25 µM) | relative viability ([1]; first compound 0.7906 µM) | relative viability ([1]; first compound 2.5 µM) | relative viability ([1]; first compound 7.906 µM) | relative viability ([1]; first compound 25 µM) | relative viability ([2]; first compound 0.25 µM) | relative viability ([2]; first compound 0.7906 µM) | relative viability ([2]; first compound 2.5 µM) | relative viability ([2]; first compound 7.906 µM) | relative viability ([2]; first compound 25 µM) | relative viability ([3]; first compound 0.04 µM) | relative viability ([3]; first compound 0.1265 µM) | relative viability ([3]; first compound 0.4 µM) | relative viability ([3]; first compound 1.265 µM) | relative viability ([3]; first compound 4 µM) | relative viability ([4]; first compound 0.04 µM) | relative viability ([4]; first compound 0.1265 µM) | relative viability ([4]; first compound 0.4 µM) | relative viability ([4]; first compound 1.265 µM) | relative viability ([4]; first compound 4 µM)
1 | COR-L23 | 0.395 | 0.319 | 0.313 | 0.365 | 0.319 | 0.465 | 0.46 | 0.45 | 0.469 | 0.481 | 1.16 | 0.714 | 0.335 | 0.198 | 0.143 | 0.387 | 0.411 | 0.473 | 0.409 | 0.521
2 | COR-L 105 | 0.738 | 0.843 | 0.696 | 0.683 | 0.683 | 0.551 | 0.495 | 0.479 | 0.583 | 0.462 | 0.327 | 0.412 | 0.278 | 0.288 | 0.297 | 0.629 | 0.403 | 0.536 | 0.401 | 0.502
3 | EKVX | 0.857 | 0.916 | 0.839 | 0.758 | 0.993 | 0.251 | 0.238 | 0.246 | 0.224 | 0.258 | 0.446 | 0.221 | 0.177 | 0.197 | 0.229 | 0.25 | 0.213 | 0.235 | – | 0.22
4 | EMC-BAC-2 | 0.505 | 0.508 | 0.48 | 0.382 | 0.429 | 0.57 | 0.57 | 0.559 | 0.401 | 0.49 | 0.931 | 0.955 | 0.543 | 0.645 | 0.588 | 0.515 | 0.506 | 0.523 | – | 0.557
5 | EPLC-272H | 0.867 | 0.682 | 0.812 | 0.661 | 0.228 | 0.354 | – | 0.307 | 0.254 | 0.234 | 1.46 | 0.903 | 0.796 | 0.187 | 0.827 | 0.308 | 0.333 | 0.299 | 0.325 | 0.337
6 | H3255 | 0.55 | 0.539 | 0.541 | 0.537 | 0.547 | 0.33 | 0.379 | 0.408 | 0.271 | 0.361 | 0.293 | 0.305 | 0.237 | 0.271 | 0.256 | 0.398 | 0.42 | 0.347 | 0.352 | 0.392
7 | HARA | 1.08 | – | 0.735 | 0.874 | 0.495 | 0.536 | – | 0.467 | 0.475 | 0.36 | 0.826 | 0.732 | 0.27 | 0.217 | 0.213 | 0.464 | 0.368 | 0.305 | – | 0.472
8 | HCC-15 | 0.718 | 0.675 | 0.73 | 0.536 | 0.502 | 0.495 | 0.478 | 0.446 | 0.431 | 0.426 | 0.962 | 0.736 | 0.779 | 0.628 | 0.745 | 0.487 | 0.46 | 0.465 | 0.445 | 0.434
9 | HCC-44 | 0.99 | 1.11 | 0.97 | 0.964 | 1.1 | 0.165 | 0.102 | 0.126 | 0.213 | 0.314 | 1.07 | 1.1 | 0.622 | 0.342 | 0.368 | 0.176 | 0.208 | 0.266 | 0.28 | 0.247
10 | HCC-78 | 0.786 | 0.628 | 0.718 | 0.852 | 0.732 | 0.661 | 0.616 | 0.867 | 0.571 | 0.793 | 0.905 | 0.906 | 0.461 | 0.816 | 0.756 | 0.614 | 0.618 | 0.637 | 0.588 | 0.555
11 | HCC-366 | 0.377 | 0.376 | 0.346 | 0.426 | 0.335 | 0.627 | – | 0.718 | 0.601 | 0.583 | 1.25 | 1.01 | 0.251 | 0.0431 | 0.0373 | 0.539 | 0.64 | 0.57 | 0.432 | 0.536
12 | HCC-827 | 0.627 | 0.704 | 0.647 | 0.626 | 0.623 | 0.415 | 0.362 | 0.401 | 0.403 | 0.428 | 0.195 | 0.273 | 0.197 | 0.251 | 0.21 | 0.453 | 0.357 | 0.406 | – | 0.404
13 | HOP-62 | 0.548 | 0.409 | 0.219 | 0.381 | 0.519 | 0.608 | 0.707 | 0.726 | 0.596 | 0.723 | 1.16 | 1.02 | 0.996 | 0.866 | 0.461 | 0.47 | 0.664 | 0.655 | 0.653 | 0.616
14 | LC-2-ad | 0.743 | 0.757 | 0.706 | 0.784 | 0.733 | 0.624 | 0.498 | 0.589 | 0.47 | 0.416 | 0.992 | 0.968 | 0.578 | 0.435 | 0.412 | 0.52 | 0.547 | 0.604 | 0.495 | 0.679
15 | LCLC-97TM1 | 0.386 | 0.413 | 0.486 | 0.244 | 0.166 | 0.445 | 0.515 | 0.439 | 0.36 | 0.53 | 1.78 | 1.54 | – | 1.74 | 1 | 0.477 | 0.406 | 0.412 | 0.478 | 0.498
